In brackets after ≈: the same amount, converted by molar mass. Like-named read-outs stand apart in the source and are kept apart here.
Columns and labels:
Spirostomum ambiguum [1] = system: Spirostomum ambiguum
Oncorhynchus mykiss = details: cited from earlier work
[2] = ref www.drugbank.ca, cited from earlier work; for Log P: octanol-water partition coefficient
Planorbid sp. = details: in vivo; cited from earlier work
in vitro = details: for LC50 at 1 d / LC50 at 2 d / LC50 at 7 d: Spirostomum ambiguum
Leishmania donovani = details: cited from earlier work
[3] = system: Hydropsyche sp. and Erpobdella octoculata; details: effluent reach stream; cited from earlier work
Spirostomum ambiguum [4] = system: Spirostomum ambiguum; remark: listed apart in the source
Ceriodaphnia dubia = details: cited from earlier work; for toxicity: endpoint not stated
Thamnocephalus platyurus = details: cited from earlier work
M. galloprovincialis = details: fluoxetine 75 ng/L nominal, cited from earlier work
Spirostomum ambiguum [5] = test: microbe, parasite or virus in culture
Daphnia magna = details: endpoint not stated; cited from earlier work
Notonecta glauca = details: cited from earlier work
Gammarus pulex = details: cited from earlier work
Spirostomum ambiguum [6] = system: Spirostomum ambiguum; remark: listed apart in the source
[7] = Spirostomum ambiguum, 7 d, 10 µg/L, pH 7.4
[8] = Spirostomum ambiguum, 7 d, 25 µg/L, pH 7.4
[9] = Spirostomum ambiguum, 8 d, 10 µg/L, pH 7.4
[10] = Spirostomum ambiguum, 8 d, 25 µg/L, pH 7.4
[11] = Spirostomum ambiguum, 12 d, 10 µg/L, pH 7.4
[12] = Spirostomum ambiguum, 12 d, 25 µg/L, pH 7.4

With `CN[C@H]1CC[C@@H](c2ccc(Cl)c(Cl)c2)c2ccccc21` [Sertraline, sertraline] as the molecule, how does the EC20 (Spirostomum ambiguum [1]; Spirostomum ambiguum, 1 d, pH 6) read?
The EC20 was 0.46 ± 0.18 mg/L (≈ 1.5 µM).

What about the EC20 (Spirostomum ambiguum [1]; Spirostomum ambiguum, 1 d, pH 6.5) of the same molecule?
The EC20 was 0.28 ± 0.04 mg/L (≈ 0.914 µM).

And the EC20 (Spirostomum ambiguum [1]; Spirostomum ambiguum, 1 d, pH 7.4)?
The EC20 was 0.29 ± 0.01 mg/L (≈ 0.947 µM).

And the EC20 (Spirostomum ambiguum [1]; Spirostomum ambiguum, 2 d, pH 6)?
The EC20 was 0.19 ± 0.03 mg/L (≈ 0.62 µM).

What about the EC20 (Spirostomum ambiguum [1]; Spirostomum ambiguum, 2 d, pH 6.5) of the same molecule?
The EC20 was 0.22 ± 0.08 mg/L (≈ 0.718 µM).

What about the EC20 (Spirostomum ambiguum [1]; Spirostomum ambiguum, 2 d, pH 7.4) of the same molecule?
The EC20 was 0.29 ± 0.01 mg/L (≈ 0.947 µM).

And the EC20 (Spirostomum ambiguum [1]; Spirostomum ambiguum, 7 d, pH 6)?
Its EC20 is 0.20 ± 0.05 mg/L (≈ 0.653 µM).

What about the EC20 (Spirostomum ambiguum [1]; Spirostomum ambiguum, 7 d, pH 6.5) of the same molecule?
The EC20 was 0.13 ± 0.03 mg/L (≈ 0.425 µM).

What about the EC20 (Spirostomum ambiguum [1]; Spirostomum ambiguum, 7 d, pH 7.4) of the same molecule?
The EC20 was 0.15 ± 0.01 mg/L (≈ 0.49 µM).

And the “96-h LC50” value (Oncorhynchus mykiss)?
Its value is 0.38 mg/L.

And the “Log P” value [2]?
The value was 5.06.

And the BCF (Planorbid sp.)?
The BCF was 990 L/kg.

And the LC50 at 1 d (in vitro; pH 6)?
Its LC50 at 1 d is 0.85 ± 0.09 µg/mL (≈ 2.78 µM).

And the LC50 at 2 d (in vitro; pH 6)?
The LC50 at 2 d was 0.49 ± 0.1 µg/mL (≈ 1.6 µM).

What about the LC50 at 7 d (in vitro; pH 6) of the same molecule?
The LC50 at 7 d was 0.33 ± 0.08 µg/mL (≈ 1.08 µM).

What about the LC50 at 1 d (in vitro; pH 6.5) of the same molecule?
The LC50 at 1 d was 0.47 ± 0.11 µg/mL (≈ 1.53 µM).

And the LC50 at 2 d (in vitro; pH 6.5)?
Its LC50 at 2 d is 0.33 ± 0.06 µg/mL (≈ 1.08 µM).

What about the LC50 at 7 d (in vitro; pH 6.5) of the same molecule?
The LC50 at 7 d was 0.18 ± 0.04 µg/mL (≈ 0.588 µM).

And the LC50 at 1 d (in vitro; pH 7.4)?
Its LC50 at 1 d is 0.41 ± 0.05 µg/mL (≈ 1.34 µM).

And the LC50 at 2 d (in vitro; pH 7.4)?
The LC50 at 2 d was 0.35 ± 0.01 µg/mL (≈ 1.14 µM).

What about the LC50 at 7 d (in vitro; pH 7.4) of the same molecule?
The LC50 at 7 d was 0.27 ± 0.03 µg/mL (≈ 0.882 µM).

And the “activity against Leishmania donovani” value (Leishmania donovani)?
The value was “high activity”.

What about the “bioaccumulation factor (BCF)” value [3] of the same molecule?
The value was “higher than 2000 L/kg”.

What about the “time of highest concentration in cells” value (Spirostomum ambiguum [4]; Spirostomum ambiguum, 100 µg/L, pH 7.4) of the same molecule?
Its value is 24 h.

What about the “BCF values reached during the uptake phase” value (Spirostomum ambiguum [4]; Spirostomum ambiguum, pH 7.4) of the same molecule?
Its value is 34,092 L/kg.

What about the “fall of intracellular concentration in the depuration phase, of the highest concentration” value (Spirostomum ambiguum [4]; Spirostomum ambiguum, pH 7.4) of the same molecule?
The value was 40%.

What about the “48-h LC50” value (Ceriodaphnia dubia) of the same molecule?
The value was 0.12 mg/L.

What about the “24-h LC50” value (Thamnocephalus platyurus) of the same molecule?
Its value is 0.6 mg/L.

Which results are given for `NCCC(Oc1ccc(C(F)(F)F)cc1)c1ccccc1` (stereo not shown) [norfluoxetine]?
concentration in mussel (M. galloprovincialis; after 3 days): 3.06 ng/g dry weight; concentration in mussel (M. galloprovincialis; after 15 days): 11.65 ng/g

For `Fc1ccc([C@@H]2CCNC[C@H]2COc2ccc3c(c2)OCO3)cc1` [Paroxetine, paroxetine], which EC50 (Spirostomum ambiguum [5]; 24 h, 1 d, pH = 6.0) is on record?
Its EC50 is 3.15 ± 1.68 µg/mL (≈ 9.56 µM).

What about the EC50 (Spirostomum ambiguum [5]; 24 h, 1 d, pH = 6.5) of the same molecule?
Its EC50 is 1.37 ± 0.03 µg/mL (≈ 4.16 µM).

And the EC50 (Spirostomum ambiguum [5]; 24 h, 1 d, pH = 7.4)?
Its EC50 is 1.15 ± 0.29 µg/mL (≈ 3.49 µM).

And the EC50 (Spirostomum ambiguum [5]; 48 h, 2 d, pH = 6.0)?
Its EC50 is 2.07 ± 0.73 µg/mL (≈ 6.28 µM).

And the EC50 (Spirostomum ambiguum [5]; 48 h, 2 d, pH = 6.5)?
The EC50 was 1.24 ± 0.17 µg/mL (≈ 3.76 µM).

And the EC50 (Spirostomum ambiguum [5]; 48 h, 2 d, pH = 7.4)?
The EC50 was 1.1 ± 0.29 µg/mL (≈ 3.34 µM).

What about the EC50 (Spirostomum ambiguum [5]; […], 7 d, pH = 6.0) of the same molecule?
The EC50 was 1.32 ± 0.13 µg/mL (≈ 4.01 µM).

And the EC50 (Spirostomum ambiguum [5]; […], 7 d, pH = 6.5)?
Its EC50 is 0.76 ± 0.26 µg/mL (≈ 2.31 µM).

What about the EC50 (Spirostomum ambiguum [5]; […], 7 d, pH = 7.4) of the same molecule?
Its EC50 is 0.74 ± 0.06 µg/mL (≈ 2.25 µM).

And the toxicity (Daphnia magna)?
Its toxicity is 6.3 mg/L.

And the LC50 at 1 d (in vitro; pH 6)?
The LC50 at 1 d was 4.53 ± 0.55 µg/mL (≈ 13.8 µM).

What about the LC50 at 2 d (in vitro; pH 6) of the same molecule?
The LC50 at 2 d was 2.55 ± 0.75 µg/mL (≈ 7.74 µM).

And the LC50 at 7 d (in vitro; pH 6)?
Its LC50 at 7 d is 1.44 ± 0.21 µg/mL (≈ 4.37 µM).

And the LC50 at 1 d (in vitro; pH 6.5)?
Its LC50 at 1 d is 1.4 ± 0.06 µg/mL (≈ 4.25 µM).

What about the LC50 at 7 d (in vitro; pH 6.5) of the same molecule?
Its LC50 at 7 d is 0.81 ± 0.31 µg/mL (≈ 2.46 µM).

And the LC50 at 1 d (in vitro; pH 7.4)?
The LC50 at 1 d was 1.17 ± 0.29 µg/mL (≈ 3.55 µM).

What about the LC50 at 2 d (in vitro; pH 7.4) of the same molecule?
Its LC50 at 2 d is 1.15 ± 0.3 µg/mL (≈ 3.49 µM).

And the LC50 at 7 d (in vitro; pH 7.4)?
Its LC50 at 7 d is 0.77 ± 0.1 µg/mL (≈ 2.34 µM).

What about the LC50 (in vitro; pH 6.5) of the same molecule?
The LC50 was 1.27 ± 0.16 µg/mL (≈ 3.86 µM).

And the “Bioconcentration factor in S. ambiguum” value (Spirostomum ambiguum [4]; [7])?
Its value is 905 L/kg.

And the “Concentration in S. ambiguum” value (Spirostomum ambiguum [4]; [7])?
Its value is 0.45 µg/g.

And the “Bioconcentration factor in S. ambiguum” value (Spirostomum ambiguum [4]; [8])?
Its value is 794 L/kg.

What about the “Concentration in S. ambiguum” value (Spirostomum ambiguum [4]; [8]) of the same molecule?
Its value is 1.19 µg/g.

What about the “Bioconcentration factor in S. ambiguum” value (Spirostomum ambiguum [4]; [9]) of the same molecule?
The value was 806 L/kg.

What about the “Concentration in S. ambiguum” value (Spirostomum ambiguum [4]; [9]) of the same molecule?
The value was 0.40 µg/g.

And the “Bioconcentration factor in S. ambiguum” value (Spirostomum ambiguum [4]; [10])?
Its value is 934 L/kg.

And the “Concentration in S. ambiguum” value (Spirostomum ambiguum [4]; [10])?
The value was 1.40 µg/g.

And the “Bioconcentration factor in S. ambiguum” value (Spirostomum ambiguum [4]; [11])?
Its value is 3649 L/kg.

And the “Concentration in S. ambiguum” value (Spirostomum ambiguum [4]; [11])?
Its value is 1.82 µg/g.

What about the “Bioconcentration factor in S. ambiguum” value (Spirostomum ambiguum [4]; [12]) of the same molecule?
Its value is 1234 L/kg.

And the “Concentration in S. ambiguum” value (Spirostomum ambiguum [4]; [12])?
The value was 1.85 µg/g.

What about the “BCF values reached during the uptake phase” value (Spirostomum ambiguum [4]; Spirostomum ambiguum, pH 7.4) of the same molecule?
Its value is no more than 1000 L/kg.

What about the toxicity (Ceriodaphnia dubia) of the same molecule?
The toxicity was 0.58 mg/L.

Which results are given for `CNCCC(Oc1ccc(C(F)(F)F)cc1)c1ccccc1` (stereo not shown) [Fluoxetine, fluoxetine]?
EC20 (Spirostomum ambiguum [1]; 1 d, pH = 6.0): 2.03 ± 0.82 mg/L (≈ 6.56 µM); EC20 (Spirostomum ambiguum [1]; 1 d, pH = 6.5): 1.16 ± 0.14 mg/L (≈ 3.75 µM); EC20 (Spirostomum ambiguum [1]; 1 d, pH = 7.4): 1.21 ± 0.04 mg/L (≈ 3.91 µM); EC20 (Spirostomum ambiguum [1]; 2 d, pH = 6.0): 1.72 ± 0.51 mg/L (≈ 5.56 µM); EC20 (Spirostomum ambiguum [1]; 2 d, pH = 6.5): 0.98 ± 0.16 mg/L (≈ 3.17 µM); EC20 (Spirostomum ambiguum [1]; 2 d, pH = 7.4): 1.06 ± 0.11 mg/L (≈ 3.43 µM); EC20 (Spirostomum ambiguum [1]; 7 d, pH = 6.0): 0.86 ± 0.15 mg/L (≈ 2.78 µM); EC20 (Spirostomum ambiguum [1]; 7 d, pH = 6.5): 0.58 ± 0.07 mg/L (≈ 1.88 µM); EC20 (Spirostomum ambiguum [1]; 7 d, pH = 7.4): 0.70 ± 0.13 mg/L (≈ 2.26 µM); Log P [2]: 4.09; BCF (Planorbid sp.): 3000 L/kg; toxicity (Daphnia magna): 0.82 mg/L; BCF (Notonecta glauca): 1387 L/kg; concentration in mussel (M. galloprovincialis; after 3 days): 2.53 ng/g dry weight; concentration in mussel (M. galloprovincialis; after 15 days): 9.31 ng/g; BCF values reached during the uptake phase (Spirostomum ambiguum [4]; S. ambiguum, uptake phase): ≤ 1000 L/kg; toxicity (Ceriodaphnia dubia): 0.23 mg/L; toxicity (Thamnocephalus platyurus; endpoint not stated): 0.85 mg/L; BCF (Gammarus pulex): 185,900 L/kg

With `CN1CCN2c3ccccc3Cc3ccccc3C2C1` (stereo not shown) [Mianserin, mianserin] as the molecule, how does the “number of transformation products observed” value (Spirostomum ambiguum [6]) read?
Its value is “Five”.

And the pKa ([2]; acid dissociation constant)?
Its pKa is 6.92.

What about the “Log P” value [2] of the same molecule?
The value was 3.83.

What about the “time of highest concentration in S. ambiguum cells” value (Spirostomum ambiguum [4]) of the same molecule?
Its value is “two days”.

And the “Concentration in S. ambiguum” value (Spirostomum ambiguum [4]; Spirostomum ambiguum, 1 d, 100 µg/L, pH 7.4)?
The value was 229.05 µg/g.

And the “BCF values reached during the uptake phase” value (Spirostomum ambiguum [4]; Spirostomum ambiguum, pH 7.4)?
Its value is 4939 L/kg.
